Assay results reported in US20050256037A1, “Antibacterial amide macrocyles” (Bayer HealthCare AG, priority 2003, published 2005).
Structures can show the parent of a compound that is named as a salt. Where two headings read alike, the source gives them in different places. Marks after values point to notes of the source that are not given here.

Assays:
Test in all cases: Rate of spontaneous resistance
Assay type in all cases: cell-based
S. aureus RN4220Bi^R = tested on: S. aureus RN4220Bi^R
Procedure: (§1) Determination of the Rates of Spontaneous Resistance to S. aureus
(§2) The spontaneous resistance rates for the compounds of the invention are determined as follows: the bacterial microbes are cultivated in 30 ml of a minimal medium (18.5 mM Na2HPO4, 5.7 mM KH2PO4, 9.3 mM NH4Cl, 2.8 mM MgSO4, 17.1 mM NaCl, 0.033 μg/ml thiamine hydrochloride, 1.2 μg/ml nicotinic acid, 0.003 μg/ml biotin, 1% glucose, 25 μg/ml of each proteinogenic amino acid with the addition of 0.4% BH broth) at 37° C. overnight, centrifuged at 6000×g for 10 min and resuspended in 2 ml of phosphate-buffered physiological NaCl solution (about 2×10^9 microbes/ml). […] The resulting colonies (cfu) are counted.

S. aureus RN4220 = tested on: S. aureus RN4220
Procedure: as §1, §2

S. aureus T17 = conditions: 10 × MIC
Procedure: as §1, §2

S. pneumoniae G9a = conditions: 5 × MIC; * = colonies with increased MIC (4-8-fold) were isolated
E. faecium L4001 = tested on: E. faecium L4001

| Compound | Rate of spontaneous resistance S. aureus RN4220Bi^R (S. aureus RN4220Bi^R; 10 × MIC) | Rate of spontaneous resistance S. aureus RN4220 (S. aureus RN4220; 10 × MIC) | Rate of spontaneous resistance S. aureus T17 (S. aureus T17) | Rate of spontaneous resistance S. aureus RN4220Bi^R (S. aureus RN4220Bi^R) | Rate of spontaneous resistance S. aureus RN4220 (S. aureus RN4220) | Rate of spontaneous resistance S. pneumoniae G9a (S. pneumoniae G9a) | Rate of spontaneous resistance E. faecium L4001 (E. faecium L4001; 5 × MIC) | Rate of spontaneous resistance E. faecium L4001 (E. faecium L4001; 10 × MIC) |
| --- | --- | --- | --- | --- | --- | --- | --- | --- |
| CN1C(=O)[C@H](C[C@@H](O)CN)NC(=O)[C@@H](N)Cc2cc(ccc2O)-c2ccc(O)c(c2)C[C@H]1C(=O)NCCN [Example 1, (8S,11S,14S)-14-amino-N-(2-aminoethyl)-11-[(2R)-3-amino-2-hydroxypropyl]-5,17-dihydroxy-9-methyl-10,13-dioxo-9,12-diazatricyclo[14.3.1.1.^2,6]henicosa-1(20),2(21),3,5,16,18-hexaene-8-carboxamide, trihydrochloride] | <6 × 10^−8 | <6 × 10^−8 | <4 × 10^−8 | – | – | – | – | – |
| NCCC[C@@H]1NC(=O)[C@@H](N)Cc2cc(ccc2O)-c2ccc(O)c(c2)C[C@@H](C(=O)NCCN)NC1=O [Example 6, (8S,11S,14S)-14-amino-N-(2-aminoethyl)-11-(3-aminopropyl)-5,17-dihydroxy-10,1 3-dioxo-9,12-diazatricyclo[14.3.1.1^2,6]henicosa-1(20),2(21),3,5,16,18-hexaene-8-carboxamide] | <4 × 10^−9 | <6 × 10^−9 | – | <8 × 10^−9* | <6 × 10^−9* | <4 × 10^−8* | 4 × 10^−8 | <4 × 10^−9 |
